pIC50, pKi: −log10 of the molar value. Like-named read-outs stand apart in the source and are kept apart here.
Tests used:
CYP2C9 [1] = target: CYP2C9 (Homo sapiens, UniProt P11712); assay: In vitro CYP2C9 inhibition; format: biochemical
CYP3A4 [2] = target: T1, CYP3A4 (Homo sapiens, UniProt P08684); assay: In vitro CYP3A4 inhibition; format: biochemical
CYP3A4 [3] = target: T1, CYP3A4; assay: In vitro CYP3A4 inhibition; format: biochemical; remark: listed apart in the source
Safety assessment = format: in vivo, patients with advanced solid tumors; conditions: 23 patients
CYP3A4 [4] = target: T1, CYP3A4; assay: Predicted AUC ratios for CYP3A4 substrates; conditions: dose (750 mg)/250 mL
[5] = cancer patients; cited from earlier work
CYP3A4 [6] = conditions: among human CYP450 isoenzymes; cited from earlier work
CYP2C9 [7] = conditions: among human CYP450 isoenzymes; cited from earlier work
[8] = warfarin 3 mg, apatinib 750 mg daily, vs single administration
[9] = any grade, 750 mg apatinib daily

T1 sequence (P08684 whole entry): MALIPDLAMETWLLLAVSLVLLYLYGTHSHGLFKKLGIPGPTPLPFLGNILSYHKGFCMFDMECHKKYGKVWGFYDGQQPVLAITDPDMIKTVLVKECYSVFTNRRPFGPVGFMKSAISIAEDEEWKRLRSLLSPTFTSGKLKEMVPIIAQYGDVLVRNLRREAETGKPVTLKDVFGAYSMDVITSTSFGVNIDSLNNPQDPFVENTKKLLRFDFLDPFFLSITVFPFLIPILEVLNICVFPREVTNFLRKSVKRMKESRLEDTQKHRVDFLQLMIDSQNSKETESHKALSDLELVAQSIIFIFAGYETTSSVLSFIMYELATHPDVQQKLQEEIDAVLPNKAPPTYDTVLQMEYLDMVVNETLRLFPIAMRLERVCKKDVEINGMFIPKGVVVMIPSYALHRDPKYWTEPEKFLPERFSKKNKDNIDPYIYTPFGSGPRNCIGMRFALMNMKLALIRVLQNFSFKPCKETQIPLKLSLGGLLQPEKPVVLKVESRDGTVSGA
Sequence of CYP2C9 (Homo sapiens, UniProt P11712) (P11712 whole entry): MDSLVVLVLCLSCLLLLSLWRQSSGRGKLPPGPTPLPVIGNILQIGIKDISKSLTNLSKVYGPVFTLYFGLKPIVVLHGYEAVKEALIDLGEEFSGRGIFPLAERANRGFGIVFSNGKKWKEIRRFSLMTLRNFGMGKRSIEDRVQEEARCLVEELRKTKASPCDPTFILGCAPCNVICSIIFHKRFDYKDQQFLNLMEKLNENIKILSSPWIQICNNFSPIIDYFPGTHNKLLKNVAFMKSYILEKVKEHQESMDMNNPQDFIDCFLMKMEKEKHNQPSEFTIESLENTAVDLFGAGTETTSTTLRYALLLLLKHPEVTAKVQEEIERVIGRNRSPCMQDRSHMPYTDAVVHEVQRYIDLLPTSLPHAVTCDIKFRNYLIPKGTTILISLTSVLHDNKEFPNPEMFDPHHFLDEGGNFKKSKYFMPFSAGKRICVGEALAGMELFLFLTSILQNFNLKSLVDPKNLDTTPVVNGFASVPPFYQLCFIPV

CC(=O)C[C@@H](c1ccccc1)c1c(O)c2ccccc2oc1=O [S-Warfarin, S-warfarin]
AUC0-∞ (3 mg warfarin oral + 750 mg apatinib daily, N=20, GMean (CV%)): 12600 (35.0) h×ng/mL
Tmax (3 mg warfarin oral + 750 mg apatinib daily, N=20, median (range)): 1.00 (0.500–3.00) h
AUC0-∞ (3 mg warfarin oral, alone, N=23, GMean (CV%)): 5190 (26.8) h×ng/mL
Tmax (3 mg warfarin oral, alone, N=23, median (range)): 0.500 (0.500–3.00) h
Difference of Tmax before and after coadministration of apatinib (S-warfarin, Wilcoxon signed-rank test): no significant difference
Increase of AUC0–t (exposure) on coadministration with apatinib [8]: 92%
Increase of Cmax on coadministration with apatinib [8]: 24%

N#CC1(c2ccc(NC(=O)c3cccnc3NCc3ccncc3)cc2)CCCC1 [apatinib]
pIC50 (CYP2C9 [1]): 6.36
pKi (CYP2C9 [1]): 6.51
pIC50 (CYP3A4 [2]): 5.74
pKi (CYP3A4 [2]): 6.15
pIC50 (CYP3A4 [3]): 6.08
pKi (CYP3A4 [3]): 6.57
Incidence of bilirubin increased (adverse event related to apatinib) (Safety assessment; [9]): 21.7%
Incidence of fatigue (adverse event related to apatinib) (Safety assessment; [9]): 21.7%
Incidence of hand-foot syndrome (adverse event related to apatinib) (Safety assessment; [9]): 17.4%
Incidence of headache (adverse event related to apatinib) (Safety assessment; [9]): 47.8%
Incidence of hypertension (adverse event related to apatinib) (Safety assessment; [9]): 73.9%
Incidence of leukopenia (adverse event related to apatinib) (Safety assessment; [9]): 21.7%
Incidence of proteinuria (adverse event related to apatinib) (Safety assessment; [9]): 26.1%
Incidence of thrombocytopenia (adverse event related to apatinib) (Safety assessment; [9]): 30.4%
Incidence of grade 3/4 drug-related hypertension (Safety assessment; grade 3/4, 750 mg apatinib daily): 17.4%
Igut (CYP3A4 [4]): 6078 µM
t1/2 [5]: 8.01 to 10.2 h
Contribution of CYP3A4 to the in vitro (oxidative) metabolism (CYP3A4 [6]): 62.6%
Contribution of CYP2C9 to the oxidative metabolism (CYP2C9 [7]): 13.1%

From publication PMC7246325 (Drug Design, Development and Therapy, 2020)
